pIC50: −log10 of the molar value.
Tests used:
5-HT1A receptors = target: T1, 5-HT1A receptors (Rattus norvegicus, UniProt P19327); experiment: 5-HT1A receptor binding test
T1 construct: from tissue; host or cells: hippocampus (membranes)
T1 sequence (P19327 1-422): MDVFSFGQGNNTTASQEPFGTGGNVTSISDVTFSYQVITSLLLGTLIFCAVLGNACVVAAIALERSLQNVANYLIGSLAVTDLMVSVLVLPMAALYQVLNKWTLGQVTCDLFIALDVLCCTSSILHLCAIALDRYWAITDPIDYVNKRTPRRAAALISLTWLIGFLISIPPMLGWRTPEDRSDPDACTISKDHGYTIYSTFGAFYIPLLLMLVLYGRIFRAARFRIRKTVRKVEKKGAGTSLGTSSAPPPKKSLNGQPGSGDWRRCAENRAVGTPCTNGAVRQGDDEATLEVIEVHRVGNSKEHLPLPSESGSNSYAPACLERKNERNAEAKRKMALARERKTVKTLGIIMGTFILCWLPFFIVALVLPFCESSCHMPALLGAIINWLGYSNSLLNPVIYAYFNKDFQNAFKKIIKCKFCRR
Source text: (§1) In particular, they inhibit 5-HT reuptake. […] Due to a 5-HT-agonistic action and 5-HT reuptake inhibition, serotonin remains in the synaptic cleft for longer and the serotonin action is reinforced. Active ingredients having such properties are therefore particularly suitable as antidepressants and anxiolytics. The compounds of the formula I inhibit the binding of tritiated serotonin ligands to hippocampal receptors (Cossery et al., European J. Pharmacol. 140 (1987), 143-155) and synaptosomal serotonin reuptake (Sherman et al., Life Sci. 23 (1978), 1863-1870).
The 5-HT1A-agonistic action can be measured in vitro, for example, with the aid of the (serotonin) binding test, as described by Matzen et al. (J. Med. Chem., 43 (2000), 1149-57), in particular on page 1156 with reference to Eur. J. Pharmacol., 140 (1987), 143-155. In addition, the 5-HT1A-agonistic action can be measured with the aid of the GTPgammaS test described by Newman-Tancredi et al. (Eur. J. Pharmacol. 307 (1996), 107-11).
Many of the compounds synthesised have nanomolar affinity to the 5-HT1A receptors and nanomolar reuptake inhibition of serotonin. • 5-{4-[4-(5-Cyano-2-oxo-2,3-dihydro-1H-indol-3-yl)butyl]piperazin-1-yl}-benzofuran-2-carboxamide

serotonin reuptake = target: T2, serotonin reuptake (Rattus norvegicus, UniProt P31652); experiment: serotonin reuptake inhibition (SSRI); assay type: biochemical
T2 construct: synaptosomal serotonin reuptake (Sherman et al., Life Sci. 23 (1978), 1863-1870); from tissue
T2 sequence (P31652 whole entry): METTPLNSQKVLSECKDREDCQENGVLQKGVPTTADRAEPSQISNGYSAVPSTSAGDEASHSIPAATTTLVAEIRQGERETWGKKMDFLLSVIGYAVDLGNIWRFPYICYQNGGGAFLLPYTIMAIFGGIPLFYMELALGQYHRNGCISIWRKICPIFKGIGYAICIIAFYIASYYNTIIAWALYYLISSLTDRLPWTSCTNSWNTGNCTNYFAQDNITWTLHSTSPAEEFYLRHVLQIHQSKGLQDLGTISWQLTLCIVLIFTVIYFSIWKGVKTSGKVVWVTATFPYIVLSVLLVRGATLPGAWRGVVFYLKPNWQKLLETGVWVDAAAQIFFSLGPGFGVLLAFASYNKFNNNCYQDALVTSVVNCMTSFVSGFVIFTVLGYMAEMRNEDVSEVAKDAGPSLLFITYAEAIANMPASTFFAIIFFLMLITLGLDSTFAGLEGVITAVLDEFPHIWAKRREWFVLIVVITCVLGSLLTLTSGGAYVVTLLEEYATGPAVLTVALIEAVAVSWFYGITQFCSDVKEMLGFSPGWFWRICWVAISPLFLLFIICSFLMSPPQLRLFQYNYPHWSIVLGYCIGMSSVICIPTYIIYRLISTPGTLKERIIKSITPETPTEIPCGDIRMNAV
Source text: as §1
For in-vitro determination of 5-HT reuptake inhibition, synaptosomal reuptake inhibition (Wong et al., Neuropsycho-pharmacology 8 (1993), 22-33) and p-chloroamphetamine antagonism (Fuller et al. J. Pharmacol. Exp. Ther. 212 (1980), 115-119) is measured. Serotonin reuptake inhibition can in addition also be investigated with the aid of the Waldmeier method ex vivo in the brain tissue of mice (European J. Pharmacol. 1977, 46, 387-92), and by microdialysis, which is described by DiChiara (Trends in Pharmacol. Sci., 11 (1990), 116-121). To this end, a physiological solution is perfused through a microdialysis container implanted into a rat brain. During this perfusion, the solution takes up the neurotransmitters liberated in the brain and is subsequently analysed. […]

## N#Cc1cc2c(CCCCN3CCN(c4ccc5oc(C(N)=O)cc5c4)CC3)c[nH]c2cc1O [5-{4-[4-(5-cyano-6-hydroxy-1H-indol-3-yl)butyl]piperazin-1-yl}-benzofuran-2-carboxamide]
5-HT1A receptors
  pIC50: 7.74
Serotonin reuptake
  pIC50: 8.57

## N#Cc1ccc2c(c1)C(CCCCN1CCN(c3ccc4oc(C(N)=O)cc4c3)CC1)C(=O)N2 (stereo not shown) [5-{4-[4-(5-cyano-2-oxo-2,3-dihydro-1H-indol-3-yl)butyl]-piperazin-1-yl}benzofuran-2-carboxamide]
5-HT1A receptors
  pIC50: 8.77
Serotonin reuptake
  pIC50: 8.54
